Source: PubChem BioAssay AID256 (DTP/NCI, 2004)
Toxic doses and inconclusive results are not listed. The calls were made as follows: active = survival T/C of 150% or more; inactive = T/C below 125% in these data.

System: CD2F1 mice, L1210 leukemia ip, survival T/C
Test: NCI In Vivo Anticancer Drug Screen. Data for tumor model L1210 Leukemia (intraperitoneal) in CD2F1 (CDF1) mice
Conditions: endpoint: mean survival time, higher = longer survival
Procedure, shortened: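 Implant tumor; dose compound or vehicle; measure endpoint in both groups; report treated divided by control.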

[1] = dose: 6.25 mg/kg/injection, schedule: Q04DX003 (ip), vehicle: saline with Tween-80
[2] = dose: 12.5 mg/kg/injection, schedule: Q04DX003 (ip), vehicle: saline with Tween-80
[3] = dose: 25.0 mg/kg/injection, schedule: Q04DX003 (ip), vehicle: saline with Tween-80
[4] = dose: 50.0 mg/kg/injection, schedule: Q01DX009 (ip), vehicle: Klucel (hydroxypropylcellulose) (HPC)
[5] = dose: 100.0 mg/kg/injection, schedule: Q01DX009 (ip), vehicle: Klucel (hydroxypropylcellulose) (HPC)
[6] = dose: 200.0 mg/kg/injection, schedule: Q01DX009 (ip), vehicle: Klucel (hydroxypropylcellulose) (HPC)
[7] = dose: 100.0 mg/kg/injection, schedule: Q01DX001 (ip), vehicle: saline
[8] = dose: 200.0 mg/kg/injection, schedule: Q01DX001 (ip), vehicle: saline
[9] = dose: 400.0 mg/kg/injection, schedule: Q01DX001 (ip), vehicle: saline
[10] = dose: 100.0 mg/kg/injection, schedule: Q04DX003 (ip), vehicle: saline
[11] = dose: 100.0 mg/kg/injection, schedule: Q01DX001 (ip), vehicle: saline with Tween-80
[12] = dose: 100.0 mg/kg/injection, schedule: Q01DX009 (ip), vehicle: saline with Tween-80
[13] = dose: 200.0 mg/kg/injection, schedule: Q01DX001 (ip), vehicle: saline with Tween-80
[14] = dose: 200.0 mg/kg/injection, schedule: Q01DX009 (ip), vehicle: saline with Tween-80
[15] = dose: 400.0 mg/kg/injection, schedule: Q01DX001 (ip), vehicle: saline with Tween-80
[16] = dose: 400.0 mg/kg/injection, schedule: Q01DX009 (ip), vehicle: saline with Tween-80
[17] = dose: 100.0 mg/kg/injection, schedule: Q04DX002 (ip), vehicle: saline with Tween-80
[18] = dose: 200.0 mg/kg/injection, schedule: Q04DX002 (ip), vehicle: saline with Tween-80
[19] = dose: 400.0 mg/kg/injection, schedule: Q04DX002 (ip), vehicle: saline with Tween-80

Measured: T/C

COc1ccc(N(C)C/C(CN)=N/O)cc1
inactive: dose: 100.0 mg/kg/injection, schedule: Q01DX001 (ip), vehicle: Klucel (hydroxypropylcellulose) (HPC) 97 % of control | dose: 200.0 mg/kg/injection, schedule: Q01DX001 (ip), vehicle: Klucel (hydroxypropylcellulose) (HPC) 102 % of control

CC([NH-])C([NH-])O.[I][Pt+2][I] (stereo not given)
inactive: [1] 97 % of control | [2] 115 % of control | [3] 121 % of control

Cc1c(N=O)c(C)[n+]([O-])n1O
inactive: [4] 89 % of control | [5] 97 % of control | [6] 97 % of control

CC(=O)NCC(C)C
inactive: [7] 98 % of control | [8] 97 % of control | [9] 104 % of control

Nc1nc2c(ncn2-c2cccc(NC(=O)CBr)c2)c(=O)[nH]1
inactive: dose: 37.5 mg/kg/injection, schedule: Q01DX001 (ip), vehicle: saline with Tween-80 95 % of control | dose: 75.0 mg/kg/injection, schedule: Q01DX001 (ip), vehicle: saline with Tween-80 100 % of control | dose: 150.0 mg/kg/injection, schedule: Q01DX001 (ip), vehicle: saline with Tween-80 92 % of control

OCCOCCN1CCN(CC/C=C2\c3ccccc3Sc3ccc(C(F)(F)F)cc32)CC1
inactive: dose: 0.75 mg/kg/injection, schedule: Q01DX009 (ip), vehicle: saline 87 % of control | dose: 1.5 mg/kg/injection, schedule: Q01DX009 (ip), vehicle: saline 94 % of control | dose: 3.0 mg/kg/injection, schedule: Q01DX009 (ip), vehicle: saline 100 % of control | dose: 6.25 mg/kg/injection, schedule: Q04DX003 (ip), vehicle: saline 103 % of control | dose: 8.0 mg/kg/injection, schedule: Q04DX003 (ip), vehicle: saline with Tween-80 115 % of control | dose: 12.0 mg/kg/injection, schedule: Q04DX003 (ip), vehicle: saline with Tween-80 116 % of control | dose: 25.0 mg/kg/injection, schedule: Q04DX003 (ip), vehicle: saline 97 % of control | dose: 50.0 mg/kg/injection, schedule: Q04DX003 (ip), vehicle: saline 111 % of control | [10] 93 % of control

Cc1cc2cc3n(c2nn1)N=C(Cl)CC3
inactive: dose: 61.87 mg/kg/injection, schedule: Q04DX002 (ip), vehicle: Klucel (hydroxypropylcellulose) (HPC) 103 % of control | dose: 100.0 mg/kg/injection, schedule: Q04DX002 (ip), vehicle: Klucel (hydroxypropylcellulose) (HPC) 101 % of control | dose: 123.75 mg/kg/injection, schedule: Q04DX002 (ip), vehicle: Klucel (hydroxypropylcellulose) (HPC) 105 % of control | dose: 200.0 mg/kg/injection, schedule: Q04DX002 (ip), vehicle: Klucel (hydroxypropylcellulose) (HPC) 103 % of control | dose: 247.5 mg/kg/injection, schedule: Q04DX002 (ip), vehicle: Klucel (hydroxypropylcellulose) (HPC) 109 % of control

CCCCCCCCCCCCCCCCSC(=S)OCC
inactive: [11] 95 % of control | [12] 96 % of control | [13] 87 % of control | [14] 95 % of control | [15] 95 % of control | [16] 95 % of control

C/C=C(\C)C1(CCC)C(=O)NC(=S)NC1=O
inactive: dose: 75.0 mg/kg/injection, schedule: Q01DX001 (ip), vehicle: other 106 % of control | dose: 150.0 mg/kg/injection, schedule: Q01DX001 (ip), vehicle: other 116 % of control

C=C1c2ccccc2C=NN1c1ccccc1
inactive: dose: 100.0 mg/kg/injection, schedule: Q01DX001 (ip), vehicle: other 94 % of control | dose: 200.0 mg/kg/injection, schedule: Q01DX001 (ip), vehicle: other 88 % of control | dose: 400.0 mg/kg/injection, schedule: Q01DX001 (ip), vehicle: other 92 % of control

Clc1ccc2ccc(Cl)cc2c1
inactive: [12] 94 % of control | [14] 96 % of control | [16] 105 % of control

CCO[Si](OCC)OCC
inactive: dose: 75.0 mg/kg/injection, schedule: Q01DX001 (ip), vehicle: saline 108 % of control

Nc1cc(Cl)c2ncn(C3OC(CO)C(O)C3O)c2n1 (stereo not given)
inactive: dose: 50.0 mg/kg/injection, schedule: Q01DX009 (ip), vehicle: saline 107 % of control | dose: 100.0 mg/kg/injection, schedule: Q01DX009 (ip), vehicle: saline 104 % of control | dose: 200.0 mg/kg/injection, schedule: Q01DX009 (ip), vehicle: saline 104 % of control

Cl
inactive: dose: 6.25 mg/kg/injection, schedule: Q01DX009 (ip), vehicle: saline sonified 103 % of control | [1] 100 % of control | dose: 12.5 mg/kg/injection, schedule: Q01DX009 (ip), vehicle: saline sonified 101 % of control | [2] 98 % of control | dose: 25.0 mg/kg/injection, schedule: Q01DX009 (ip), vehicle: saline sonified 106 % of control | [3] 98 % of control

CC(C)[N-]C(C)C.CC(C)[N-]C(C)C.[Cl][Pt+2][Cl]
inactive: dose: 10.0 mg/kg/injection, schedule: Q04DX003 (ip), vehicle: saline with Tween-80 102 % of control | dose: 20.0 mg/kg/injection, schedule: Q04DX003 (ip), vehicle: saline with Tween-80 97 % of control | dose: 40.0 mg/kg/injection, schedule: Q04DX003 (ip), vehicle: saline with Tween-80 105 % of control | dose: 80.0 mg/kg/injection, schedule: Q04DX003 (ip), vehicle: saline with Tween-80 97 % of control | dose: 160.0 mg/kg/injection, schedule: Q04DX003 (ip), vehicle: saline with Tween-80 97 % of control

CC(C)OC(=O)N(C(=O)OC(C)C)c1ccccc1
inactive: [17] 94 % of control | [18] 108 % of control | [19] 94 % of control

CC(=O)OC1CCC2(C)C(=CC=C3C2=CCC2(C)C3CCC2C(C)/C=C\C(C)C(C)C)C1 (stereo not given)
inactive: [4] 96 % of control | [5] 93 % of control | [6] 101 % of control

Brc1sc(Br)c(Br)c1Br
inactive: [11] 109 % of control | [12] 100 % of control | [13] 95 % of control | [14] 101 % of control | [15] 102 % of control | [16] 101 % of control

Cc1c(O)c2c(c(O)c1Cc1ccc(C#N)cc1)C(=O)c1ccccc1C2=O
inactive: dose: 12.5 mg/kg/injection, schedule: Q01DX009 (ip), vehicle: Klucel (hydroxypropylcellulose) (HPC) 91 % of control | dose: 25.0 mg/kg/injection, schedule: Q01DX009 (ip), vehicle: Klucel (hydroxypropylcellulose) (HPC) 96 % of control | [5] 90 % of control | [6] 94 % of control

O=C(O)C1(O)C[C@@H](O)C(O)[C@H](O)C1 (stereo not given in full)
inactive: [7] 102 % of control | [10] 108 % of control | [8] 96 % of control | dose: 200.0 mg/kg/injection, schedule: Q04DX003 (ip), vehicle: saline 98 % of control | [9] 100 % of control | dose: 400.0 mg/kg/injection, schedule: Q04DX003 (ip), vehicle: saline 102 % of control

CCc1ccccc1NC(=O)/C=C/c1ccccc1
inactive: [17] 86 % of control | [18] 96 % of control | [19] 93 % of control

CCC1(CC)C=CC(Br)CC1(CC)CC (stereo not given)
inactive: [12] 101 % of control | [14] 113 % of control | [16] 98 % of control
